According to US6605424B1, “Method of detecting inhibitors of agonist-specific desensitization” (Duke University, priority 1989, dated 2003):
Where two headings read alike, the source gives them in different places. No end group written: not given here.

Key:
[1] = system: β2ARs in permeabilized A431 cells; test: Phosphorylation of β2ARs in permeabilized A431 cells; format: cell-based, human; conditions: 1 μM isoproterenol, absence of heparin
Protocol: FIG. 8. Phosphorylation of β2ARs in permeabilized A431 cells. […] FIG. 8A: Autoradiogram obtained after a 10-day exposure at −70° C. FIG. 8B: Transverse densitometric scan of the autoradiogram.
β2ARs in permeabilized A431 cells were phosphorylated as follows. Permeabilized cells (4×10^8) in 10 ml of KG-A buffer containing 1 mCi (1 Ci=37 GBq) of [γ-^32P]ATP were incubated with or without 1 μM (−)-isoproterenol (and other compounds as indicated) for 10 min at 37° C. All buffers used in these experiments contained 5 μg of soybean tryspin inhibitor, 5 μg of leupeptin, and 10 μg of benzamidine per ml and 0.1 mM phenylmethylsulfonyl fluoride. […] After three identical washing steps, crude membranes were prepared as above.
Aliquots of the samples (≈60 fmol of β2ARs) were desalted over Sephadex G-50 and incubated for 2 hr at 20° C. with 200 pM of the ligand with or without 10 μM alprenolol. Free ligand was removed by desalting as above, and the samples were irradiated with UV light for 3 min. The samples were loaded on the same gel as the samples described above.

[2] = system: adenylyl cyclase in membranes of A431 cells; test: cells; conditions: Homo sapiens
Protocol: FIG. 5. […] Cells were incubated for 10 min with (desensitized) (●) or without (control) (◯) 1 μM (−)-isoproterenol as detailed. Adenylyl cyclase activities of membranes prepared from the cells were measured in the presence of various concentrations of (−)-isoproterenol and were expressed as percent of the activity in the presence of 10 mM NaF. […] Data are means±SEM of three independent experiments.
Desensitization of β2ARs in A431 cells was effected as follows. Permeabilized cells in KG-A buffer (or, for controls, intact cells in PBS) were incubated with or without 1 μM (−)-isoproterenol for 10 min or the indicated times (4×10^7 cells per ml). The incubation was terminated by addition of 10 vol of ice-cold KG buffer (or PBS, respectively), followed by centrifugation at 1000×g for 5 min. After three identical washes, cells were disrupted with a Polytron homogenizer in 5 mM Tris-HCl, pH 7.4/2 mM EDTA. Crude membranes were prepared by spinning the supernatant after low-speed centrifugation (1000×g for 5 min) at 40,000×g for 20 min.
Adenylyl cyclase activity in the membranes was determined as described by Salomon et al (Anal. Biochem. (1974) 58:541-548). The free Mg^2+ concentration in the assay was 4 mM.
Concentration-response curves were analyzed by nonlinear curve-fitting to the Hill equation as described (Lohse et al (1986) Mol. Pharmacol. 30:403-409). Adenylyl cyclase activity was expressed as the percentage of the activity in the presence of 10 mM NaF. Since NaF stimulates adenylyl cyclase via the stimulatory guanine nucleotide binding protein, Gs, this normalizes for effects that occur at the level of Gs or the cyclase (i.e., which effects represent heterologous desensitization). Desensitization was assessed by measuring the loss of maximal stimulation by isoproterenol [determined with 10 μM (−)-isoproterenol] and was calculated as [1−stimulation (desensitized)/stimulation (control)]×100. For example, a decrease from 60% to 40% of NaF-stimulated activity corresponds to a desensitization of [1−(40/60)]×100=33%.

[3] = molecular target: T1, βAR kinase (Bos taurus, UniProt P21146); test: Inhibition of β2AR phosphorylation by βAR kinase by synthetic peptides (Example III); format: biochemical, bovine
T1 construct: βAR kinase was purified from bovine cerebral cortex; from tissue; host or cells: bovine cerebral cortex
T1 sequence (P21146 1-689): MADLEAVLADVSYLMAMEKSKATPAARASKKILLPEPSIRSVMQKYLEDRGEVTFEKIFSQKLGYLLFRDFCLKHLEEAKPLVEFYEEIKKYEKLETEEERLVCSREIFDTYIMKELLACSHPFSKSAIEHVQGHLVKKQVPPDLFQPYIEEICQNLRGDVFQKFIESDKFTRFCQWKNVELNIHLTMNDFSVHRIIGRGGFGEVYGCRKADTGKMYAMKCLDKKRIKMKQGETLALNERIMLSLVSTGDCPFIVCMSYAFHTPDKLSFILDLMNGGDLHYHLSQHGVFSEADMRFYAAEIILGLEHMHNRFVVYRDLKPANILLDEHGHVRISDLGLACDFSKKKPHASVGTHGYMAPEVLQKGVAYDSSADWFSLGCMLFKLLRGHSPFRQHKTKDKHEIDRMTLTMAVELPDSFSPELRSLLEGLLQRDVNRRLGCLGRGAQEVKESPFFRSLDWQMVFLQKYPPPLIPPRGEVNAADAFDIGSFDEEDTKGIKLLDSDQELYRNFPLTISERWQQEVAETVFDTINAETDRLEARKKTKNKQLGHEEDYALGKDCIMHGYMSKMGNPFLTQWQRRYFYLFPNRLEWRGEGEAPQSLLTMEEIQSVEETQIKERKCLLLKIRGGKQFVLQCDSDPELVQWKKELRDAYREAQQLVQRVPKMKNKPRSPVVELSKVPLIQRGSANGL
Protocol: FIG. 13. Inhibition of β2AR phosphorylation by synthetic peptides. Reconstituted β2AR (˜0.4 pmol) was incubated for 30 min at 30° with purified βAR kinase (˜30 ng) in the presence of 50 mM Tris-HCl, pH 7.5, 2 mM EDTA, 10 mM NaCl, 5 mM MgCl2, 5 mM sodium phosphate, 50 μM (−)-isoproterenol and 0.10 mM [γ^32P]ATP (2.0 cpm/fmol). Synthetic β2AR peptides were varied from 0 to 1 mM and included CI (Δ), CII (▴), CIII-2 (◯) and CT-1 (●). Reactions were stopped by the addition of […]. ^32P-labeled receptor was determined by cutting and counting the dried gel following autoradiography.
The β2-adrenergic receptor from hamster lung was purified to apparent homogeneity by sequential affinity and high performance liquid chromatography as described (Benovic et al (1984) Biochemistry 23:4510-4518). The purified receptor was reinserted into phosphatidylcholine vesicles as previously described (Cerione et al (1983) Nature 306:562-566). The protein-lipid pellets were resuspended in 20 mM Tris-HCl, pH 7.2, 2 mM EDTA and used as a substrate for the βAR kinase.
(§1) βAR kinase was purified from bovine cerebral cortex by modification of a previously described procedure (Benovic et al (1987) J. Biol. Chem. 262:9026-9032). Briefly, 250 g of bovine cortex was homogenized and the resulting high speed supernatant fraction was precipitated with 13-26% ammonium sulfate. This material was initially chromatographed on an Ultrogel AcA34 column equilibrated with 5 mM Tris-HCl, pH 7.5, 2 mM EDTA, 5 μg/ml leupeptin, 5 μg/ml pepstatin, 15 μg/ml benzamidine, 0.2 mM phenylmethyl sulfonyl fluoride (buffer A). The peak activity was diluted 1:1 with buffer A containing 0.02% triton X-100 and applied to a DEAE Sephacel column. Elution was accomplished with a 0-80 mM NaCl gradient in buffer A containing triton X-100. The peak activity was then applied directly to a CM Fractogel column and eluted with a 0-100 mM NaCl gradient in buffer A containing triton X-100. The purified kinase was stored at 4° C.
The inhibition of substrate phosphorylation by βAR kinase in the presence of synthetic peptides was assayed as follows. Reconstituted βAR (0.2-1 pmol/inclubation) was incubated with βAR kinase (10-30 ng) in a buffer containing 50 mM Tris-HCl, pH 7.5, 2 mM EDTA, 10 mM NaCl, 5 mM MgCl2, 5 mM sodium phosphate, 50 μM (−)-isoproterenol, 0.10 mM [γ-^32P]ATP (1-3 cpm/fmol) at 30° C. for 30 min. Synthetic β2AR peptides were varied in concentration from 0 to 2 mM. Reactions were quenched by the addition of SDS sample buffer followed by gel electrophoresis. In some experiments urea treated rod outer segments (Wilden et al (1982) Biochemistry 21:3014-3022; Shichi et al (1978) J. Biol. Chem. 253:7040-7046) were used as the substrate for βAR kinase. To further define the specificity of the peptide inhibition, phosvitin, casein (see Example I) and the synthetic peptides CT-2 and CT-3 were used as substrates for βAR kinase.
SDS polyacrylamide gel electrophoresis was performed by the method of Laemmli (Nature (1970) 227:[…]) using 10 or 15% homogeneous slab gels. SDS sample buffer contained 8% SDS, 10% glycerol, 5% β-mercaptoethanol, 25 mM Tris-HCl, pH 6.5 and 0.003% bromphenol blue. SDS urea polyacrylamide gel electrophoresis was carried out using 6.5 M urea, 0.1% SDS, 100 mM H3PO4, pH 6.8 with Tris-HCl and 9% acrylamide (Swank et al (1971) Anal. Biochem. 39:462). SDS urea sample buffer contained 1% SDS, 8M urea, 10 mM H3PO4, pH 6.8 with Tris-HCl, 1% β-mercaptoethanol and 0.003% bromphenol blue.

[4] = molecular target: T1, βAR kinase; test: Phosphorylation of β2AR and synthetic β2AR peptides by βAR kinase (substrate kinetics); format: biochemical, bovine; conditions: for phosphorylation by βAR kinase: FIG. 10; for Ratio (Vmax/Km relative to β2AR + ISO): substrate of βAR kinase
Protocol: FIG. 11. Kinetic parameters of the βAR kinase for β2AR. Reconstituted β2AR (0.05-0.3 μM) was incubated for 15 min at 30° C. with purified βAR kinase (˜30 ng) in the presence (◯) or absence (●) of 50 μM (−)-isoproterenol. Reactions were stopped by the addition of SDS sample buffer before electrophoresis on a 10% SDS polyacrylamide gel. ^32P-labeled receptor was determined by cutting and counting the dried gel following […] autoradiography.
FIG. 12. Kinetic parameters of the βAR kinase for synthetic peptides CT-2 and CT-3. The synthetic β2AR peptides CT-2 (0.6-3.3 mM;Δ) and CT-3 (0.6-4.3 mM; ▴) were incubated for 60 min at 30° C. with purified βAR kinase (˜30 ng). Reactions were stopped by the addition of SDS urea sample buffer before electrophoresis on a 9% SDS urea polyacrylamide gel. ^32P-labeled peptide was determined by cutting and counting the gel following autoradiography.
as §1
Phosphorylation of βAR was accomplished by incubating reconstituted βAR (0.5-5 pmol/incubation) with βAR kinase (10-50 ng) in a buffer containing 20 mM Tris-HCl, pH 7.5, 2 mM EDTA, 10 mM NaCl, 5 mM MgCl2, 5 mM sodium phosphate, 0.5 mM ascorbic acid, 0.15 mM [γ-^32P]ATP (1-5 cpm/fmol) at 30° C. for the indicated time (see Figures indicated below and corresponding description). Some incubations also contained 50 μM (−)-isoproterenol. Incubations were stopped by the addition of 50 μl of SDS sample buffer followed by electrophoresis on 10% homogeneous polyacrylamide gels. Phosphorylated βAR was visualized by autoradiography and the corresponding bands were excised and counted to determine the pmol of phosphate incorporated.
Synthetic βAR peptides were phosphorylated as follows by βAR kinase. […] Following autoradiography the phosphorylated peptides were excised and counted to determine the amount of phosphate incorporated. […]

IC50 ([3]; hamster β2AR peptides, ND = no significant inhibition at ˜500 μM, read-out: IC50 (μM), inhibition of β2AR phosphorylation by βAR kinase)	phosphorylation by βAR kinase [4]	Ratio (Vmax/Km relative to β2AR + ISO) [4]	inhibition of β2AR phosphorylation ([3]; tested at ˜0.5 mM)	Compound	increase in the phosphorylation of the β2ARs [1]	Emax ([2]; A-431, 10 min, read-out: desensitization (loss of maximal stimulation), 1 μM isoproterenol 10 min 37° C., both intact and permeabilized cells)	EC50 ([2]; A-431, read-out: EC50, adenylyl cyclase stimulation, control intact cells)	EC50 ([2]; A-431, read-out: EC50, adenylyl cyclase stimulation, control permeabilized cells)	EC50 ([2]; A-431, read-out: EC50, adenylyl cyclase stimulation, desensitized intact cells)	EC50 ([2]; A-431, read-out: EC50, adenylyl cyclase stimulation, desensitized permeabilized cells)	Emax ([2]; A-431, read-out: Emax, maximal stimulation over basal in percent of activity with 10 mM NaF, control intact cells)	Emax ([2]; A-431, read-out: Emax, maximal stimulation over basal in percent of activity with 10 mM NaF, control permeabilized cells)	Emax ([2]; A-431, read-out: Emax, maximal stimulation over basal in percent of activity with 10 mM NaF, desensitized intact cells)	Emax ([2]; A-431, read-out: Emax, maximal stimulation over basal in percent of activity with 10 mM NaF, desensitized permeabilized cells)
				CC(C)NC[C@H](O)c1ccc(O)c(O)c1 [isoproterenol, (−)-isoproterenol]	5 fold	~30%	200 nM	130 nM	300 nM	190 nM	56%	62%	40%	43%
142 µM	are phosphorylated by βAR kinase	2.3 × 10^−6		GYSSNSNGKTDYMGEASGCQLGQEKESER [CT-2 (353-381)]										
	are phosphorylated by βAR kinase	1.3 × 10^−6	do not inhibit	QGTVPSLSLDSQGRNCSTNDSPL [CT-3 (396-418)]										
